Test results taken from patent US20080221361A1, “Ionic Liquids” (BIONIQS LIMITED, priority 2005, published 2008).

Key:
Assay type in all cases: physicochemical
Settings in all cases: product dried to water content between about 0.2 and 1% w/w
[1] = Density, mass of a measured volume of the liquid
Protocol: (§1) Where the starting materials were both liquids, no solvent was used for the synthesis. Viscosities were measured using an AND™ SV10 vibrational viscometer. Refractive indices were obtained using a Mettler Toledo Refracto™ 30 portable refractometer. Densities were measured simply by determining the mass of a measured volume of the liquid. All products were dried prior to characterisation, to a water content of between about 0.2 and 1% w/w.

[2] = Refractive index, Mettler Toledo Refracto 30 portable refractometer
Protocol: as §1

[3] = Viscosity, AND SV10 vibrational viscometer
Protocol: as §1

| Compound | Density (g/cm^3) (error ± ~2%) [1] | Refractive index (error ± ~2%) [2] | Viscosity at 25° C. (centipoise) (error ± ~5%) [3] |
| --- | --- | --- | --- |
| CCC(=O)O.CCCCNCCO [N-butylethanolammonium propionate] | 1.00 g/mL | 1.457 |  |
| COCCCN.O=C(O)CO [3-methoxypropylammonium glycolate] | 1.17 g/mL | 1.470 | 2670 centipoise |
| CCC(=O)O.COCCN(C)CCOC [N-methyl-bis(2-methoxyethyl)ammonium propionate] |  | 1.423 |  |
| CCC(=O)O.COCCN(C)C [N,N-dimethyl-2-methoxyethylammonium propionate] |  | 1.422 |  |
| COCCN(C)C.CS(=O)(=O)O [N,N-dimethyl-2-methoxyethylammonium methanesulphonate] |  | 1.449 |  |
| CC(=O)O.COCCN(C)CCOC [N-methyl-bis(2-methoxyethyl)ammonium acetate] |  | 1.423 |  |
| COCCN(C)C.NS(=O)(=O)O [N,N-dimethyl-2-methoxyethylammonium sulphamate] |  | 1.472 |  |
| N,N-dimethyl-2-methoxyethylammonium octanoate | 0.93 g/mL | 1.429 | 13.5 centipoise |
| CCN(CC)CCO.O=CO [N,N-diethylethanolammonium formate] | 1.04 g/mL | 1.462 | 395 centipoise |
| CC(=O)O.CCN(CC)CCO [N,N-diethylethanolammonium acetate] | 1.00 g/mL | 1.453 | 55 centipoise |
| CC(=O)O.COCCCN [3-methoxypropylammonium acetate] | 1.04 g/mL | 1.447 | 640 centipoise |
| CC(=O)O.CCCNCCO [N-propylethanolammonium acetate] | 1.04 g/mL | 1.459 | 1310 centipoise |
| CC(=O)O.CCN(CC)CC(O)CO (stereo not drawn) [N,N-diethylpropane-2,3-diolammonium acetate] |  |  | 3100 centipoise |
| CCC(=O)O.CCN(CC)CCO [N,N-diethylethanolammonium propionate] | 0.98 g/mL | 1.450 | 42 centipoise |
| COCCN(C)CCOC.O=C(O)CO [N-methyl-bis(2-methoxyethyl)ammonium glycolate] |  | 1.452 |  |
| CC(=O)O.COCCN(C)C [N,N-dimethyl-2-methoxyethylammonium acetate] |  | 1.426 |  |

| Compound | Density (g/cm^3) (error ± ~2%) [1] | Refractive index (error ± ~2%) [2] | Viscosity at 25° C. (centipoise) (error ± ~5%) [3] |
| --- | --- | --- | --- |
| CC(=O)O.CN(C)CCCO [N,N-dimethylpropanolammonium acetate] | 1.03 g/mL | 1.451 | 77 centipoise |
| COCCN(C)C.O=C(O)CO [N,N-dimethyl-2-methoxyethylammonium glycolate] |  | 1.459 |  |
| CN(C)CCCO.O=C(O)CO [N,N-dimethylpropanolammonium glycolate] | 1.14 g/mL | 1.472 | 3320 centipoise |
| CCCCCCCC(=O)O.CCN(CC)CCO [N,N-diethylethanolammonium octanoate] | 0.96 g/mL | 1.451 | 46 centipoise |
| CCCCCCCC(=O)O.CCCCNCCO [N-butylethanolammonium octanoate] |  | 1.456 | 388 centipoise |
| CCCCNCCO.O=CO [N-butylethanolammonium formate] | 1.04 g/mL | 1.462 | 376 centipoise |
| CCCCNCCO.O=C(O)CO [N-butylethanolammonium glycolate] | 1.08 g/mL | 1.464 | 800 centipoise |
| CCC(=O)O.CCCNCCO [N-propylethanolammonium propionate] | 1.02 g/mL | 1.456 | 483 centipoise |
| CC(=O)O.CN(C)CCOCCO [N,N-dimethyl-N-[(2-hydroxyethoxy)ethyl]ammonium acetate] | 1.05 g/mL | 1.45 | 48 centipoise |
| CN(C)CCCO.O=CO [N,N-dimethylpropanolammonium formate] | 1.07 g/mL | 1.460 | 132 centipoise |
| CCC(=O)O.CN(C)CCCO [N,N-dimethylpropanolammonium propionate] | 0.99 g/mL | 1.441 | 52 centipoise |
| CCN(CC)CCO.O=C(O)CO [N,N-diethylethanolammonium glycolate] | 1.11 g/mL | 1.466 | 740 centipoise |
| CC(=O)O.CCCCNCCO [N-butylethanolammonium acetate] | 1.04 g/mL | 1.455 | 365 centipoise |
| N-methyl-bis(2-methoxyethyl)ammonium octanoate |  | 1.431 |  |
| CCS(=O)(=O)O.COCCN(C)C [N,N-dimethyl-2-methoxyethylammonium ethanesulphonate] |  | 1.449 |  |
